Measured values reported in the METLIN SMRT retention time set (Domingo-Almenara et al. 2019).

Experiment: gradient 5% acetonitrile 3 min, to 50% in 2 min, to 85% in 15 min, held 3 min, 100 µL/min
Conditions: column: Zorbax Extend-C18 2.1 x 50 mm; eluents: water / acetonitrile, 0.1% formic acid
Procedure, shortened: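 Retention time was recorded from adduct peaks, which were picked computationally and each inspected manually. Pure standards ran in mixtures of ~100 molecules on HPLC coupled to a quadrupole time-of-flight mass spectrometer, in positive and negative ionization mode, through a Zorbax Extend-C18 column (2.1 × 50 mm, 1.8 μm) at 100 μL/min. Eluents were water and acetonitrile, each with 0.1% formic acid.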

Row | SMILES | RP-LC retention time
1 | Cc1cc(Br)ccc1NC(=O)c1cc2n(n1)CCCC2 | 993 s
2 | CCCc1cc(NC)n2ncc(-c3ccccc3)c2n1 | 683 s
3 | Cc1ccsc1C(=O)NCC1Cn2cccc2C(=O)N1C (stereo not given) | 656 s
4 | O=c1ccc(-c2ccc3c(c2)OCO3)nn1CCc1nc(-c2ccc(F)cc2)no1 | 927 s
5 | O=C(Nc1nnc(SCC(=O)N2CCc3ccccc32)s1)NC1CCCCC1 | 839 s
6 | COc1ccccc1N1CCN(c2ncc(S(=O)(=O)c3ccc(C)c(C)c3)c(N)n2)CC1 | 1020 s
7 | O=C(Nc1ccc2c(c1)N(S(=O)(=O)c1ccccc1)CCC2)c1ccccc1[N+](=O)[O-] | 926 s
8 | Cc1ccc(-n2nc(N3CCCN(C(=O)c4ccc(Br)o4)CC3)ccc2=O)cc1C | 824 s
9 | CCCNC(=O)c1cn(-c2ccc(-c3nc(C(C)C)no3)cn2)cn1 | 847 s
10 | O=C(NC1CC1)c1cc(=O)[nH]c2ccccc12 | 587 s
11 | COc1ccc(-n2c(=O)n(C)c(=O)c3cc(C(=O)NCc4ccccn4)cnc32)cc1 | 600 s
12 | Cn1nnc2cc(-c3noc(C4CC(=O)N(c5cccc(Cl)c5)C4)n3)ccc21 (stereo not given) | 864 s
13 | CCNc1cc(N2CCCC(CCC(=O)NCCOC)C2)ncn1 (stereo not given) | 580 s
14 | CC(C)c1nnc(-c2cccnc2N2CCN(C(=O)c3ccco3)CC2)o1 | 735 s
15 | CCn1c(C2CCN(C(=O)c3ccc(Br)o3)C2)nc2cccnc21 (stereo not given) | 678 s
16 | CCOc1ccc(S(=O)(=O)N2CCC3(CC2)c2nccn2CCN3C)cc1 | 651 s
17 | O=C(NCc1ccccc1)c1ncccn1 | 609 s
18 | O=C(CSc1cc(N2CCN(c3ccccc3F)CC2)ncn1)Nc1ccc(Cl)cc1F | 1310 s
19 | Cc1ccc(-n2nc(C)c(S(=O)(=O)N3CCC(C(=O)N4CCN(C)CC4)CC3)c2C)cc1 | 629 s
20 | CCOC(=O)C1=C(C)N(CC(=O)N2CCCC2)c2ncnn2C1c1ccc(C)cc1 (stereo not given) | 824 s
21 | O=C(N[C@H]1C[C@@H]2C[C@H]1CN2S(=O)(=O)c1ccc(C(F)(F)F)cc1)c1cccnc1 | 794 s
22 | CCNC(=O)C1CCN(C(=O)Nc2ccc(NC(=O)Nc3ccc(CC)cc3)cc2)CC1 | 733 s
23 | CC(C)C(=O)NCc1csc(C2CCCN(C(=O)C3CCCC3)C2)n1 (stereo not given) | 691 s

Row | SMILES | RP-LC retention time
24 | Cc1onc(-c2ccccc2Cl)c1C(=O)Nn1cnc2c(cnn2C(C)(C)C)c1=O | 864 s
25 | CCOc1ccc(-c2noc(Cc3nc(-c4ccccc4)cs3)n2)cc1 | 1240 s
26 | CC(NC(=O)c1c(O)c2cccnc2n(-c2ccccc2)c1=O)c1ccccc1 (stereo not given) | 1190 s
27 | CCCc1cc(C2CCCN2C(=O)Cc2ccc(OC)c(OC)c2)no1 (stereo not given) | 760 s
28 | Cc1cc(C)c(S(=O)(=O)N2CCCC2c2nc(-c3ccc(F)cc3)no2)cc1C (stereo not given) | 1270 s
29 | CCN(CC)C(=O)c1cc(C)nc2c1c(=O)n(Cc1nc(-c3ccccc3)oc1C)c(=O)n2C | 996 s
30 | Cc1nc(-c2cccc(-c3noc(CNC(=O)c4ccccc4)n3)c2)cs1 | 918 s
31 | CC(C)n1c(=O)c2ccccc2n(Cc2nc(-c3cccc(Br)c3)no2)c1=O | 1250 s
32 | COc1ccc(-c2cc(C(F)(F)F)n3ncc(C(=O)O)c3n2)cc1OC | 777 s
33 | CCOC(=O)[C@@H](C)NC(=O)C1CCN(S(=O)(=O)c2ccc(C)cc2)CC1 | 787 s
34 | CCCN1CCN(C(=O)Cn2ccc3ccc(-c4nnc(C)o4)cc32)CC1 | 589 s
35 | CCn1cc(NC(=O)Nc2nc(C)cs2)c2ccccc21 | 792 s
36 | Cc1ccc(C)c(Nc2c(-c3ccccc3)nc3ncccn23)c1 | 815 s
37 | COc1ccc(-c2noc(-c3ccc(=O)n(Cc4ccccn4)c3)n2)cc1OC | 743 s
38 | COc1ccc(N2C(=O)C3N=NN(Cc4nc(-c5ccc(C)cc5)no4)C3C2=O)cc1OC (stereo not given) | 915 s
39 | CC(NC(=O)c1ccccc1F)C(=O)N1CCN(c2ccccn2)CC1 (stereo not given) | 574 s
40 | COc1ccc(Cl)cc1C(=O)Nc1ccc2c(c1)CN(C(=O)c1cccs1)CC2 | 958 s
41 | O=C(O)c1cnc(NCc2cccnc2)nc1-c1cccnc1 | 875 s
42 | COc1ccc(-c2ccnc3nc(C(C)C)nn23)cc1 | 845 s
43 | O=C(NCc1cccc(F)c1)C1CCN(c2cnc3nccnc3c2)CC1 | 680 s
44 | CCCN1C(=O)COc2ccc(-c3noc(C(C)Oc4ccccc4)n3)cc21 (stereo not given) | 1160 s
45 | C=CCn1nc(C)c(-c2cc(C(=O)O)[nH]n2)c1C | 605 s
46 | COc1ccc(-c2nnc(-c3ccccc3)o2)cc1S(=O)(=O)N1CCCC1 | 908 s

Row | SMILES | RP-LC retention time
47 | CC1=NS(=O)(=O)N(C)C=C1C(=O)OCc1nc(-c2ccccc2)no1 | 944 s
48 | COC(=O)c1ccc(NC(=O)N(C)CCc2noc(-c3ccccc3)n2)cc1 | 840 s
49 | CC(C)C(=O)NCCc1csc(C2CCCN(C(=O)C3CCCO3)C2)n1 (stereo not given) | 622 s
50 | Cc1ccc(-c2noc(-c3nc(-c4ccccn4)no3)n2)cc1 | 1090 s
51 | Cc1[nH]nc(-c2c(C)sc(C)c2S(=O)(=O)NCCC2=CCCCC2)c1C | 1210 s
52 | Cc1cc2nn(CC(=O)Nc3ccc(F)c(Cl)c3)c(=O)n2c(Nc2ccccc2)n1 | 1070 s
53 | COCCNC(=O)N1CCCN(C2=NS(=O)(=O)C(c3ccc(C)cc3)=C2C)CC1 | 688 s
54 | Cc1ccccc1CNC(=O)C1(C)CCCN(C(=O)Nc2cccc(F)c2)C1 (stereo not given) | 937 s
55 | Cn1cc(C(=O)Nc2ccc3c(c2)OCCO3)c2cccnc21 | 727 s
56 | Cc1ccccc1NC(=O)NCC1CCOCC1 | 658 s
57 | COCCn1c(SCc2nc(-c3ccc(F)cc3)no2)nc2cc3c(cc2c1=O)OCO3 | 1070 s
58 | COc1ccc(OC)c(S(=O)(=O)N2CCc3nn(CC4CC4)c(=O)n3CC2)c1 | 598 s
59 | COc1ccc(-c2noc(C3CCCN3C(=O)Nc3ccccc3C(F)(F)F)n2)cc1 (stereo not given) | 1010 s
60 | COc1ccc(C)cc1NC(=O)N1C[C@H](c2nc(-c3ccncc3)no2)[C@@H](C)C1 | 876 s
61 | O=C1C[C@@H](c2ccc(O)c(O)c2)Oc2cc(O[C@H]3O[C@@H](CO)[C@H](O)[C@@H](O)[C@@H]3O)cc(O)c21 | 723 s
62 | Cc1cc(C)nc(N2CCN(c3cccc(Cl)c3)CC2)n1 | 1060 s
63 | CC1=C(c2ccc(Cl)cc2)S(=O)(=O)N=C1N1CCCN(C(=O)c2cccs2)CC1 | 840 s
64 | Cc1oc(C2CCC2)nc1C(=O)NCc1cc(F)ccc1F | 1030 s
65 | Cc1cc(C)n(-c2nc(CC(=O)N3CCc4ccccc4C3)cs2)n1 | 970 s
66 | CCN1C(=O)C(C)(C(=O)NCc2cccc(OC)c2)Oc2cccnc21 (stereo not given) | 829 s
67 | Cc1ccc(NC(=O)Cn2ccc3sccc3c2=O)cc1C | 740 s
68 | Cc1ccc2cc(CCC(=O)NCCc3ccccn3)c(=O)[nH]c2c1 | 596 s
69 | O=S(=O)(c1ccc2nncn2c1)N(Cc1ccccc1Cl)c1ccccc1 | 885 s

Row | SMILES | RP-LC retention time
70 | Cc1nc(Nc2ccc(Br)cn2)sc1C(=O)N1CCN(C(C)C)CC1 | 630 s
71 | CCc1nccn1Cc1noc(-c2ccc(OC)cc2)n1 | 626 s
72 | O=S(=O)(CCOc1ccccc1)NCc1ccccc1 | 674 s
73 | COc1ccc(NC(=O)c2cnc3c(c2)c(=O)n(C)c(=O)n3-c2ccccc2)cc1 | 862 s
74 | CC1=NOC(C)(CNC(=O)NC2CCCC2)C1 (stereo not given) | 633 s
75 | COCCNC(=O)C1CCN(S(=O)(=O)c2cc(-c3noc(C)n3)cs2)CC1 | 679 s
76 | O=C(NCc1cccc(F)c1)C1c2ccccc2CCN1C(=O)C1CC1 (stereo not given) | 840 s
77 | Cc1ccccc1-c1noc(Cn2c(=O)n(Cc3ccco3)c(=O)c3ccccc32)n1 | 1100 s
78 | CC1CCCN(CCCNC(=O)CN2C(=O)CCn3nc(-c4cn(C)c5ccccc45)cc32)C1 (stereo not given) | 635 s
79 | CCOC(=O)c1cc(C2CC2)nc2c1c(=O)n(Cc1ccccc1F)c(=O)n2C | 1140 s
80 | Cc1ccccc1N1C(=O)CN(S(=O)(=O)c2ccccc2)CC1(C)C(=O)NC1CCCC1 (stereo not given) | 920 s
81 | CCCN(C(C)=O)c1nc(-c2ccc(C3CCCCC3)cc2)cs1 | 748 s
82 | CCc1nc(-c2cc(S(=O)(=O)Nc3cc(F)ccc3Cl)c(C)s2)cs1 | 1160 s
83 | CCCCN(C)c1nc(-c2ccc([N+](=O)[O-])cc2)nc2ccccc12 | 883 s
84 | CCN1C(=O)COc2cc(-c3noc(C(=O)N4CCN(C)CC4)n3)ccc21 | 616 s
85 | COC(=O)C1=C(C)NC(=O)NC1c1cn(-c2ccccc2)nc1-c1ccc(Cl)cc1 (stereo not given) | 784 s
86 | CC(C)CCNC(=O)c1ccc2c(c1)N(C)C(=O)C1CCCCN21 (stereo not given) | 885 s
87 | COc1cccc(Oc2nccnc2N2CCC(C(=O)N3CCN(c4ccccn4)CC3)CC2)c1 | 658 s
88 | CCc1noc(-c2cnc3nc(C)ccc3c2NCc2ccc(OC)cc2OC)n1 | 752 s
89 | C=CC(C)(C)c1cc(/C=C/C(=O)c2ccc(O)cc2)c(OC)cc1O | 903 s
90 | Cc1noc(C)c1CC(=O)N1C[C@H]2C[C@H](C1)[C@H]1CCCC(=O)N1C2 | 599 s
